From patent US8519154B2, “Method for treatment of bronchial asthma” (Council of Scientific & Industrial Research, priority 2011, dated 2013) come the findings set out here.

Data set [1] deals with PDE-4. Briefly: Phosphodiesterase 4 assay, [3H]cAMP SPA enzyme assay, enzyme preparation from rat heart. The data set is classed as biochemical. The method, then:
For phosphodiesterase (PDE-4) assay, enzyme preparations were performed from rat heart (Ko et al 2004, Biochemical Pharmacology 68:2087-2094). Heart was excised from anesthetized rat and transfer into normal saline solution. Heart weighing 687 mg was taken and homogenized in 2.5 volumes of homogenization buffer containing 20 mM Tris-Cl, 50 mM NaCl, 2 mM EDTA, 0.1 mM PMSF, […], protease inhibitors 1 μg/μl. The homogenate was centrifuged at 500×g for 5 minute at 4° C. Then sup was taken for further centrifuged at 40,000×g for 30 minute (ultra centrifugation). After centrifugation supernatant was collected for phosphodiesterase assay. Protein concentration was estimated and for each assay, 2.5 μg protein (PDE enzyme preparation) was used. All compounds tested for PDE 4 activity were dissolved in DMSO.
Phosphodiesterase 4 assay: Phosphodiesterase 4 assay was conducted with [^3H] cAMP SPA enzyme assay (GE Amersham, UK) using 2.5 μg enzyme preparation for each well. Into each well 60 μl water, 10 μl assay buffer supplied with the kit, 10 μl compound (inhibitor), 10 μl PDE enzyme or homogenizing buffer (blank) and […] radiolabel led cAMP ([^3H]cAMP, GE Amersham, UK) were added. To check activity of the enzyme without inhibitor (compound) 10 μl DMSO was added in place of inhibitor to a separate well. The reaction mixtures were incubated for […] at 30° C. The reaction was stopped by adding 50 μl SPA bead supplied with the kit. It was then mixed well and allowed to stand at room temperature for 20 min. Breakdown of cAMP in each tube was monitored by β counter. The reading in each tube was obtained in counts per minute (CPM). The reading of the blank tube (without enzyme) was subtracted from each tube to normalize the counts. The enzyme activity was calculated by considering the CPM reading without any inhibitor (compound) as 100.

The test system of data set [2] is mice. Briefly: Electric shock induced convulsions. Type of data set: in vivo, Swiss mice. The method, then:
Convulsion were induced by a single electroshock (50 Hz in frequency, 0.5 ms pulse width, 50 mA current for 0.3 s) applied through bi-polar electrodes attached to the ear pinna on both side using a pulse generator (Ugo Basile, Italy). The convulsive activity (determined by loss of tonic extensor seizure) was recorded in control (untreated) and Compound I were treated (before electro-shock application) animals [Achliya, G S, Wadodkar, S G, Darle, A K., Evaluation of CNS activity of Bramhi Ghrita. Indian J. Pharmacol. 37 (2005) 33-36].
Anti-convulsant activity was measured by electric shock induced seizure. Five Swiss mice were used for one dose of drug. Convulsion were induced by a single electroshock (50 Hz in frequency, 0.5 ms pulse width, 50 mA current for 0.3 s) applied through bi-polar electrodes attached to the ear pinna on both side by a pulse generator (Ugo Basile, Italy) Test drug were administered orally 60 min before electroshock application, and convulsive activity was determined by loss of tonic extensor seizure.

Data set [3] concerns mice. Briefly: Pentobarbitone induced sleeping time. Type of data set: in vivo. Conditions: pentobarbitone 50 mg/kg (i.p) alone. How it is done: Compound I was administered to mice perorally. […] were administered with sodium pentobarbitone (50 mg/kg, ip). Sleeping time (No righting reflex) (in min) was determined for the control (untreated) and D8 treated animals [Montilla, M P., Cabo, J., Navarro, M C., Risco, S., Jimmenez R S., Aneires, J., The protective and curative action of Withania frutescens leaf extract against CCl4-induced hepatotoxicity. Phytother. Res. 4 (1990) 212-215].

In the case of `COc1cc(COC(C)=O)cc2c1[nH]c1ccccc12` [V], the “% of Inhibition” value in data set [1] (0.1 μg/ml) is on record as 0%; in data set [1] (1 μg/ml), 11.80%; in data set [1] (10 μg/ml), 44.2%.

In the case of `CCC1(c2ccccc2)C(=O)NC(=O)NC1=O` [Phenobarbitone, reference compound], in data set [2] (30 mg/kg p.o.), the “Convulsions Clonic” value is recorded as 0/5, the “Convulsions Tonic” value is given as 0/5 and the Mortality is 0/5. Further, the anti-convulsant activity entry in data set [2] (positive control) is listed as “significant anti-convulsant activity”.

`CCCC(C)C1(CC)C(=O)NC(=O)NC1=O` (centres unmarked) [Pentobarbitone]: in data set [3], the “Sleeping Time (Minutes ± SEM)” value was determined as 75.6 ± 9.4 min.
